Reference: patent US20230144186A1 (The Trustees of the University of Pennsylvania, priority 2020, published 2023)
Where two headings read alike, the source gives them in different places.

How the values were obtained:
[1] = system: SARS-CoV-2 (UPenn/Philadelphia strain); assay: Human sinonasal ALI infection with SARS-CoV-2, nucleocapsid staining and quantitative fluorescence imaging; conditions: 1 mg/mL quinine sulfate, 48 hrs; average of two measurements
[2] = system: human ciliated sinonasal air-liquid-interface (ALI) cells
[3] = system: human H1N1 influenza A strain PR8; type: cell-based; conditions: 0.1% quinine in 0.9% sodium chloride from 1 h post infection, daily, 72 hrs
airway inflammation = conditions: murine model; cited from earlier work
nitric oxide (NO) = assay: NO production after nasal instillation in ferrets (nasal wash); type: in vivo, ferret

In the case of `C=C[C@H]1C[N@@]2CC[C@H]1C[C@H]2[C@H](O)c1ccnc2ccc(OC)cc12` [quinine], the “Quinine Rx (% infected)” value [1] is reported as 2.32%, the cell viability [2] is reported as “remained viable and visually healthy” and the “transcripts for both the NP and IAV-M genes” value ([3]; subject A cells, MOI of 1) is reported as “lesser relative reduction”. The “transcripts for both the NP and IAV-M genes” value ([3]; subject B (more mature) ALI culture) was “marked relative reduction”, the “airway inflammation (BAL, histology, PFTs)” value (airway inflammation) was “reduce airway inflammation” and the “NO in nasal wash” value (nitric oxide (NO); 5 min after 200 μL of 1 mg/mL solution intranasal) was 6.64 ng/mL. The “NO in nasal wash” value (nitric oxide (NO); 10 min after 200 μL of 1 mg/mL solution intranasal) was 6.42 ng/mL and the “NO in nasal wash” value (nitric oxide (NO); 15 min after 200 μL of 1 mg/mL solution intranasal) was 6.52 ng/mL.
